# Patent US8785488B2 (Exelixis Patent Company LLC, priority 2009, dated 2014)
# Target: T1, human TGR5 (h-TGR5) (Homo sapiens, UniProt Q8TDU6)
# T1 construct: expressed in transfected cells
# T1 sequence (Q8TDU6 1-330): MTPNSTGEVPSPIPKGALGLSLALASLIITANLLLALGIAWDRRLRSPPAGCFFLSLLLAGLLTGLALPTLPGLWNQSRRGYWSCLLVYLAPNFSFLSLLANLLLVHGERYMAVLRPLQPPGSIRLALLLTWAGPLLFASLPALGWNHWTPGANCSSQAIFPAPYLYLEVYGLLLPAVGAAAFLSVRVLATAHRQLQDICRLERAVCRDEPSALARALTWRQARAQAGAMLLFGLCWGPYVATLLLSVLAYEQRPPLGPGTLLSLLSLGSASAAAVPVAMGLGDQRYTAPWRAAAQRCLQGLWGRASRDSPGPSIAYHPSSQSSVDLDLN
# Assay: TGR5/CRE-Luciferiase Assay (HEK 293 hTGR5/CRE-Luc cells)
# Format: cell-based
# Details: h-TGR5 CRE-Luc EC50, Table 1; read-out: CRE-Luc (EC50)
# How it was run: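 HEK293 cells stably carrying hTGR5 and a CRE-luciferase reporter were exposed to serially diluted compounds (diluted in DMEM with 5% DMSO) for 6 h. Cells were then lysed in luciferase buffer, luminescence was read, and EC50 values were derived from dose-response curves.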
row,EC50,Structure (SMILES)
1,100 to 1000 nM,"COCCNC(=O)c1ccc(CSc2ncc(C(C)(C)c3ccc(Cl)c(Cl)c3)n2-c2ccc(F)cc2)c(F)c1 [4-[({5-[1-(3,4-dichlorophenyl)-1-methylethyl]-1-(4-fluorophenyl)-1H-imidazol-2-yl}thio)methyl]-3-fluoro-N-[2-(methyloxy)ethyl]benzamide]"
2,100 to 1000 nM,"CC(C)(c1ccc(Cl)c(Cl)c1)c1cnc(SCc2ccc(C(N)=O)cc2F)n1-c1ccc(F)cc1 [4-[({5-[1-(3,4-dichlorophenyl)-1-methylethyl]-1-(4-fluorophenyl)-1H-imidazol-2-yl}thio)methyl]-3-fluorobenzamide]"
3,1000 to 10000 nM,"CC(C)(c1ccc(Cl)c(Cl)c1)c1cnc(SCC2CCNCC2)n1-c1ccc(F)cc1 [4-[({5-[1-(3,4-dichlorophenyl)-1-methylethyl]-1-(4-fluorophenyl)-1H-imidazol-2-yl}thio)methyl]piperidine]"
4,100 to 1000 nM,"CC(C)(c1ccc(Cl)c(Cl)c1)c1cnc(SCc2ccc(S(N)(=O)=O)c(F)c2)n1-c1ccc(F)cc1 [4-[({5-[1-(3,4-dichlorophenyl)-1-methylethyl]-1-(4-fluorophenyl)-1H-imidazol-2-yl}thio)methyl}-2-fluorobenzenesulfonamide]"
5,100 to 1000 nM,"CC(C)(c1ccc(Cl)c(Cl)c1)c1cnc(SCc2c(F)cc(C(=O)O)cc2F)n1-c1ccc(F)c(CO)c1 [4-[({5-[1-(3,4-dichlorophenyl)-1-methylethyl]-1-[4-fluoro-3-(hydroxymethyl)phenyl]-1H-imidazol-2-yl}thio)methyl]-3,5-difluorobenzoic acid]"
6,100 to 1000 nM,"CC(C)NC(=O)N1CCC(CSc2ncc(C(C)(C)c3ccc(F)c(F)c3)n2-c2ccc(F)cc2)CC1 [4-[({5-[1-(3,4-difluorophenyl)-1-methylethyl]-1-(4-fIuorophenyl)-1H-imidazol-2-yl}thio)methyl]-N-(1-methylethyl)piperidine-1-carboxamide]"
7,100 to 1000 nM,"CC(C)(c1ccc(F)c(F)c1)c1cnc(SCc2ccc(C(=O)O)cc2F)n1-c1ccc(F)cc1 [4-[({5-[1-(3,4-difluorophenyl)-1-methylethyl]-1-(4-fluorophenyl)-1H-imidazol-2-yl}thio)methyl]-3-fluorobenzoic acid]"
8,100 to 1000 nM,"CC(C)(c1ccc(Cl)c(O)c1)c1cnc(SCc2c(F)cc(C(=O)O)cc2F)n1-c1ccc(F)cc1 [4-[({5-[1-(4-chloro-3-hydroxyphenyl)-1-methylethyl]-1-(4-fluorophenyl)-1H-imidazol-2-yl}thio)methyl]-3,5-difluorobenzoic acid]"
9,100 to 1000 nM,"CC(C)(c1ccc(Cl)c(Cl)c1)c1c(Cl)nc(SCc2c(F)cccc2Cl)n1-c1ccc(F)cc1 [4-chloro-2-{[(2-chloro-6-fluorophenyl)methyl]thio}-5-[1-(3,4-dichlorophenyl)-1-methylethyl]-1-(4-fluorophenyl)-1H-imidazole]"
10,100 to 1000 nM,"CC(C)(c1ccc(Cl)c(Cl)c1)c1cnc(SCc2cc(C(N)=O)ccc2Cl)n1-c1ccc(F)cc1 [4-chloro-3-[({5-[1-(3,4-dichlorophenyl)-1-methylethyl]-1-(4-fluorophenyl)-1H-imidazol-2-yl}thio)methyl]benzamide]"

# The remaining lines, values behind:
row,Structure (SMILES),EC50
1,"CC(C)(c1ccc(Cl)c(Cl)c1)c1cnc(SCc2ccc(C#N)cc2Cl)n1-c1ccc(F)cc1 [3-chloro-4-[({5-[1-(3,4-dichlorophenyl)-1-methylethyl]-1-(4-fluorophenyl)-1H-imidazol-2-yl}thio)methyl]benzonitrile]",100 to 1000 nM
2,"CC(C)(c1ccc(F)c(F)c1)c1cnc(SCc2c(F)cc(C(=O)O)cc2Cl)n1-c1ccc(F)cc1 [3-chloro-4-[({5-[1-(3,4-difluorophenyl)-1-methylethyl]-1-(4-fluorophenyl)-1H-imidazol-2-yl}thio)methyl]-5-fluorobenzoic acid]",100 to 1000 nM
3,COc1cc(-n2c(C(C)(C)c3ccc(Cl)c(OC)c3)cnc2SCc2ccc(S(N)(=O)=O)cc2Cl)ccc1F [3-chloro-4-{[(5-{1-[4-chloro-3-(methyloxy)phenyl]-1-methylethyl}-1-[4-fluoro-3-(methyloxy)phenyl]-1H-imidazol-2-yl)thio]methyl}benzenesulfonamide],< 100 nM
4,"CC(C)(c1ccc(F)c(F)c1)c1cnc(SCC2CCN(CC(O)CO)CC2)n1-c1ccc(F)cc1 (stereo not drawn) [3-{4-[({5-[1-(3,4-difluorophenyl)-1-methylethyl]-1-(4-fluorophenyl)-1H-imidazol-2-yl}thio)methyl]piperidin-1-yl}propane-1,2-diol]",1000 to 10000 nM
5,"CC(C)(c1ccc(Cl)c(Cl)c1)c1cnc(C(F)CC2CCN(S(C)(=O)=O)CC2)n1-c1ccc(F)cc1 (stereo not drawn) [4-(2-{5-[1-(3,4-dichlorophenyl)-1-methylethyl]-1-(4-fluorophenyl)-1H-imidazol-2-yl}-2-fluoroethyl)-1-(methylsulfonyl)piperidine]",1000 to 10000 nM
6,"CC(C)(c1ccc(S(C)(=O)=O)cc1)c1cnc(SCc2c(F)cc(C(=O)O)cc2F)n1-c1ccc(F)c(F)c1 [4-({[1-(3,4-difluorophenyl)-5-{1-methyl-1-[4-(methylsulfonyl)phenyl]ethyl}-1H-imidazol-2-yl]thio}methyl)-3,5-difluorobenzoic acid]",1000 to 10000 nM
7,"COc1c(Cl)cc(C(C)(C)c2cnc(SCc3ccc(S(N)(=O)=O)cc3F)n2-c2ccc(F)cc2)cc1Cl [4-({[5-{1-[3,5-dichloro-4-(methyloxy)phenyl]-1-methylethyl}-1-(4-fluorophenyl)-1H-imidazol-2-yl]thio}methyl)-3-fluorobenzenesulfonamide]",< 100 nM
8,"CC(C)(c1ccc(Cl)c(S(N)(=O)=O)c1)c1cnc(SCc2c(F)cc(C(=O)O)cc2F)n1-c1ccc(F)cc1 [4-({[5-{1-[3-(aminosulfonyl)-4-chlorophenyl]-1-methylethyl}-1-(4-fluorophenyl)-1H-imidazol-2-yl]thio}methyl)-3,5-difluorobenzoic acid]",1000 to 10000 nM
9,COc1ccc(C(C)(C)c2cnc(SCc3ccc(C(=O)O)cc3F)n2-c2ccc(F)cc2)cc1Cl [4-({[5-{1-[3-chloro-4-(methyloxy)phenyl]-1-methylethyl}-1-(4-fluorophenyl)-1H-imidazol-2-yl]thio}methyl)-3-fluorobenzoic acid],100 to 1000 nM
10,"CC(C)(c1ccc(Cl)c(Cl)c1)c1cnc(SCc2ccc(F)cc2Cl)n1-c1ccc(N2CCOCC2)cc1 [4-[4-(2-{[(2-chloro-4-fluorophenyl)methyl]thio}-5-[1-(3,4-dichlorophenyl)-1-methylethyl]-1H-imidazol-1-yl)phenyl]morpholine]",1000 to 10000 nM
11,"CC(C)(c1ccc(Cl)c(Cl)c1)c1cnc(SCC2CCN(c3nnn[nH]3)CC2)n1-c1ccc(F)c(F)c1 [4-[({5-[1-(3,4-dichlorophenyl)-1-methylethyl]-1-(3,4-difluorophenyl)-1H-imidazol-2-yl}thio)methyl]-1-(1H-tetrazol-5-yl)piperidine]",< 100 nM
12,"CC(C)(c1ccc(Cl)c(Cl)c1)c1cnc(SCC2CCN(S(C)(=O)=O)CC2)n1-c1ccc(F)c(F)c1 [4-[({5-[1-(3,4-dichlorophenyl)-1-methylethyl]-1-(3,4-difluorophenyl)-1H-imidazol-2-yl}thio)methyl]-1-(methylsulfonyl)piperidine]",< 100 nM
13,"CC(C)(c1ccc(Cl)c(Cl)c1)c1cnc(COc2ccnc3ccccc23)n1-c1ccc(F)cc1 [4-[({5-[1-(3,4-dichlorophenyl)-1-methylethyl]-1-(4-fluorophenyl)-1H-imidazol-2-yl}methyl)oxy]quinoline]",1000 to 10000 nM
14,"CC(C)(c1ccc(Cl)c(Cl)c1)c1cnc(OCC2CCN(c3nnn[nH]3)CC2)n1-c1ccc(F)cc1 [4-[({5-[1-(3,4-dichlorophenyl)-1-methylethyl]-1-(4-fluorophenyl)-1H-imidazol-2-yl}oxy)methyl]-1-(1H-tetrazol-5-yl)piperidine]",1000 to 10000 nM
15,"CC(C)(c1ccc(Cl)c(Cl)c1)c1cnc(SCC2CCN(c3ccc(F)cc3)CC2)n1-c1ccc(F)cc1 [4-[({5-[1-(3,4-dichlorophenyl)-1-methylethyl]-1-(4-fluorophenyl)-1H-imidazol-2-yl}thio)methyl]-1-(4-fluorophenyl)piperidine]",1000 to 10000 nM
16,"CC(C)(c1ccc(Cl)c(Cl)c1)c1cnc(SCc2ccc(C(N)=O)c(F)c2)n1-c1ccc(F)cc1 [4-[({5-[1-(3,4-dichlorophenyl)-1-methylethyl]-1-(4-fluorophenyl)-1H-imidazol-2-yl}thio)methyl]-2-fluorobenzamide]",100 to 1000 nM
17,"CC(C)(c1ccc(Cl)c(Cl)c1)c1cnc(SCc2ccc(C(=O)O)c(F)c2)n1-c1ccc(F)cc1 [4-[({5-[1-(3,4-dichlorophenyl)-1-methylethyl]-1-(4-fluorophenyl)-1H-imidazol-2-yl}thio)methyl]-2-fluorobenzoic acid]",100 to 1000 nM
18,"CC(C)(c1ccc(Cl)c(Cl)c1)c1cnc(SCc2c(F)cc(C#N)cc2F)n1-c1ccc(F)cc1 [4-[({5-[1-(3,4-dichlorophenyl)-1-methylethyl]-1-(4-fluorophenyl)-1H-imidazol-2-yl}thio)methyl]-3,5-difluorobenzonitrile]",< 100 nM
19,"CC(C)(c1ccc(Cl)c(Cl)c1)c1cnc(SCc2ccc(C(=O)NCC(F)(F)F)cc2F)n1-c1ccc(F)cc1 [4-[({5-[1-(3,4-dichlorophenyl)-1-methylethyl]-1-(4-fluorophenyl)-1H-imidazol-2-yl}thio)methyl]-3-fluoro-N-(2,2,2-trifluoroethyl)benzamide]",100 to 1000 nM
20,"CC(C)(c1ccc(Cl)c(Cl)c1)c1cnc(SCc2ccc(C(=O)NCCN3CCOCC3)cc2F)n1-c1ccc(F)cc1 [4-[({5-[1-(3,4-dichlorophenyl)-1-methylethyl]-1-(4-fluorophenyl)-1H-imidazol-2-yl}thio)methyl]-3-fluoro-N-(2-morpholin-4-ylethyl)benzamide]",100 to 1000 nM
